Experimental data taken from patent US9708314B2, “Heterocyclic amide compound” (NISSAN CHEMICAL INDUSTRIES, LTD., priority 2013, dated 2017).

Assays:
Assay type in all cases: in vivo
[1] = tested on: transplanted Oryza sativa; test: Test Example 1: effect on crop, application before weed generation in submerged conditions; conditions: Application herbicide amount 320 g/ha; Seventeenth Table
Outline: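 Alluvial soil in Wagner pots flooded to 4 cm water depth; weed seeds sown and 2.5 leaf stage rice seedlings transplanted. Emulsion diluted in water applied to water surface on sowing day at stated g/ha. Greenhouse 25° C. to 30° C.; effects scored 0–5 by herbicidal ratio after three weeks.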

[2] = tested on: directly sowed Oryza sativa; test: Test Example 3: effect on crop by application to foliage (Wagner pot, water depth 0.1-0.5 cm); conditions: Nineteenth Table; application to foliage; application herbicide amount 320 g/ha
Outline: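 Grading uses six bands of herbicidal ratio, from 0 (≤5%, almost no effect) to 5 (≥90%, almost completely withered). Treatment was a stem-and-leaf spray of diluted emulsion at a fixed g/ha on 14-day-old plants; evaluation after three weeks.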

Abutilon theophrasti = test: Test Example 4: herbicidal effect by application to foliage (diluvial soil, plastic box); conditions: 320 g/ha; for M (Abutilon theophrasti) herbicidal effect grade: foliage application; for herbicidal effect, M (Abutilon theophrasti): application to foliage
Outline: (§1)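 Scores run from 0 (herbicidal ratio ≤5%) to 5 (≥90%, almost fully withered) and were assessed three weeks after foliar spraying. Seedlings had been raised for 14 days at 25-30° C in sterilized diluvial soil before treatment, with the emulsion diluted in water to the stated g/ha dose.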

Amaranthus retroflexus = test: as above; conditions: 320 g/ha; for N (Amaranthus retroflexus) herbicidal effect grade: foliage application; for herbicidal effect, N (Amaranthus retroflexus): application to foliage
Outline: as §1

Apera spica-venti. = test: as above; conditions: 320 g/ha; for L (Apera spica-venti.) herbicidal effect grade: foliage application; for herbicidal effect, L (Apera spica-venti.): application to foliage
Outline: as §1

Avena fatua = test: as above; conditions: 320 g/ha; for I (Avena fatua) herbicidal effect grade: foliage application; for herbicidal effect, I (Avena fatua): application to foliage
Outline: as §1

Chenopodium album = test: as above; conditions: 320 g/ha; for O (Chenopodium album) herbicidal effect grade: foliage application; for herbicidal effect, O (Chenopodium album): application to foliage
Outline: as §1

[3] = tested on: Echinochloa crus-galli var. crus-galli; test: as above; conditions: 320 g/ha; for H (Echinochloa crus-galli var. crus-galli) herbicidal effect grade: foliage application; for herbicidal effect, H (Echinochloa crus-galli var. crus-galli): application to foliage
Outline: as §1

Lolium multiflorum Lam. = test: as above; conditions: 320 g/ha; for K (Lolium multiflorum Lam.) herbicidal effect grade: foliage application; for herbicidal effect, K (Lolium multiflorum Lam.): application to foliage
Outline: as §1

SMILES	a: transplanted Oryza sativa (effect on crop grade) [1]	b (effect on crop grade) [2]	M (Abutilon theophrasti) herbicidal effect grade (Abutilon theophrasti)	N (Amaranthus retroflexus) herbicidal effect grade (Amaranthus retroflexus)	L (Apera spica-venti.) herbicidal effect grade (Apera spica-venti.)	I (Avena fatua) herbicidal effect grade (Avena fatua)	O (Chenopodium album) herbicidal effect grade (Chenopodium album)	H (Echinochloa crus-galli var. crus-galli) herbicidal effect grade [3]	K (Lolium multiflorum Lam.) herbicidal effect grade (Lolium multiflorum Lam.)	herbicidal effect, M (Abutilon theophrasti) (Abutilon theophrasti)	herbicidal effect, N (Amaranthus retroflexus) (Amaranthus retroflexus)	herbicidal effect, L (Apera spica-venti.) (Apera spica-venti.)	herbicidal effect, I (Avena fatua) (Avena fatua)	herbicidal effect, O (Chenopodium album) (Chenopodium album)	herbicidal effect, H (Echinochloa crus-galli var. crus-galli) [3]	herbicidal effect, K (Lolium multiflorum Lam.) (Lolium multiflorum Lam.)
CC(C)c1nnc2c(C(=O)Nc3nnnn3-c3ccccc3)ccc(C(F)(F)F)n12 [2-073]	2 (Herbicidal ratio of 20% or more and less than 40%)	2 (Herbicidal ratio of 20% or more and less than 40%)	3 (Herbicidal ratio of 40% or more and less than 70%)	3 (Herbicidal ratio of 40% or more and less than 70%)	0 (Herbicidal ratio of 5% or less (almost no effect))	1 (Herbicidal ratio of 5% or more and less than 20%)	5 (Herbicidal ratio of 90% or more (almost completely withered))	4 (Herbicidal ratio of 70% or more and less than 90%)	1 (Herbicidal ratio of 5% or more and less than 20%)	–	–	–	–	–	–	–
COCCNc1nnc2c(C(=O)Nc3nnnn3C)ccc(C(F)(F)F)n12 [2-074]	3 (Herbicidal ratio of 40% or more and less than 70%)	5 (Herbicidal ratio of 90% or more (almost completely withered))	4 (Herbicidal ratio of 70% or more and less than 90%)	5 (Herbicidal ratio of 90% or more (almost completely withered))	3 (Herbicidal ratio of 40% or more and less than 70%)	4 (Herbicidal ratio of 70% or more and less than 90%)	5 (Herbicidal ratio of 90% or more (almost completely withered))	5 (Herbicidal ratio of 90% or more (almost completely withered))	3 (Herbicidal ratio of 40% or more and less than 70%)	–	–	–	–	–	–	–
Cn1nnnc1NC(=O)c1ccc(C(F)(F)F)n2c(N3CCOCC3)nnc12 [2-075]	5 (Herbicidal ratio of 90% or more (almost completely withered))	5 (Herbicidal ratio of 90% or more (almost completely withered))	–	–	–	–	–	–	–	5 (Herbicidal ratio of 90% or more (almost completely withered))	5 (Herbicidal ratio of 90% or more (almost completely withered))	4 (Herbicidal ratio of 70% or more and less than 90%)	5 (Herbicidal ratio of 90% or more (almost completely withered))	5 (Herbicidal ratio of 90% or more (almost completely withered))	5 (Herbicidal ratio of 90% or more (almost completely withered))	4 (Herbicidal ratio of 70% or more and less than 90%)
Cn1nnnc1NC(=O)c1ccc(C(F)(F)F)n2c(SCc3ccccc3)nnc12 [2-076]	2 (Herbicidal ratio of 20% or more and less than 40%)	1 (Herbicidal ratio of 5% or more and less than 20%)	–	–	–	–	–	–	–	4 (Herbicidal ratio of 70% or more and less than 90%)	5 (Herbicidal ratio of 90% or more (almost completely withered))	2 (Herbicidal ratio of 20% or more and less than 40%)	1 (Herbicidal ratio of 5% or more and less than 20%)	5 (Herbicidal ratio of 90% or more (almost completely withered))	5 (Herbicidal ratio of 90% or more (almost completely withered))	1 (Herbicidal ratio of 5% or more and less than 20%)
COc1ccc(CSc2nnc3c(C(=O)Nc4nnnn4C)ccc(C(F)(F)F)n23)cc1 [2-077]	1 (Herbicidal ratio of 5% or more and less than 20%)	0 (Herbicidal ratio of 5% or less (almost no effect))	–	–	–	–	–	–	–	4 (Herbicidal ratio of 70% or more and less than 90%)	5 (Herbicidal ratio of 90% or more (almost completely withered))	0 (Herbicidal ratio of 5% or less (almost no effect))	0 (Herbicidal ratio of 5% or less (almost no effect))	5 (Herbicidal ratio of 90% or more (almost completely withered))	4 (Herbicidal ratio of 70% or more and less than 90%)	0 (Herbicidal ratio of 5% or less (almost no effect))
Cn1nnnc1NC(=O)c1ccc(C(F)(F)F)n2c(N3CCSCC3)nnc12 [2-078]	4 (Herbicidal ratio of 70% or more and less than 90%)	4 (Herbicidal ratio of 70% or more and less than 90%)	–	–	–	–	–	–	–	5 (Herbicidal ratio of 90% or more (almost completely withered))	5 (Herbicidal ratio of 90% or more (almost completely withered))	5 (Herbicidal ratio of 90% or more (almost completely withered))	3 (Herbicidal ratio of 40% or more and less than 70%)	5 (Herbicidal ratio of 90% or more (almost completely withered))	5 (Herbicidal ratio of 90% or more (almost completely withered))	4 (Herbicidal ratio of 70% or more and less than 90%)
COCCN(C)c1nnc2c(C(=O)Nc3nnnn3C)ccc(C(F)(F)F)n12 [2-079]	4 (Herbicidal ratio of 70% or more and less than 90%)	5 (Herbicidal ratio of 90% or more (almost completely withered))	–	–	–	–	–	–	–	5 (Herbicidal ratio of 90% or more (almost completely withered))	5 (Herbicidal ratio of 90% or more (almost completely withered))	5 (Herbicidal ratio of 90% or more (almost completely withered))	3 (Herbicidal ratio of 40% or more and less than 70%)	5 (Herbicidal ratio of 90% or more (almost completely withered))	5 (Herbicidal ratio of 90% or more (almost completely withered))	2 (Herbicidal ratio of 20% or more and less than 40%)
CSCCNc1nnc2c(C(=O)Nc3nnnn3C)ccc(C(F)(F)F)n12 [2-080]	2 (Herbicidal ratio of 20% or more and less than 40%)	3 (Herbicidal ratio of 40% or more and less than 70%)	–	–	–	–	–	–	–	5 (Herbicidal ratio of 90% or more (almost completely withered))	5 (Herbicidal ratio of 90% or more (almost completely withered))	3 (Herbicidal ratio of 40% or more and less than 70%)	1 (Herbicidal ratio of 5% or more and less than 20%)	5 (Herbicidal ratio of 90% or more (almost completely withered))	5 (Herbicidal ratio of 90% or more (almost completely withered))	0 (Herbicidal ratio of 5% or less (almost no effect))
Cn1nnnc1NC(=O)c1ccc(C(F)(F)F)n2c(NCC(F)(F)F)nnc12 [2-081]	3 (Herbicidal ratio of 40% or more and less than 70%)	4 (Herbicidal ratio of 70% or more and less than 90%)	–	–	–	–	–	–	–	4 (Herbicidal ratio of 70% or more and less than 90%)	5 (Herbicidal ratio of 90% or more (almost completely withered))	1 (Herbicidal ratio of 5% or more and less than 20%)	3 (Herbicidal ratio of 40% or more and less than 70%)	5 (Herbicidal ratio of 90% or more (almost completely withered))	5 (Herbicidal ratio of 90% or more (almost completely withered))	1 (Herbicidal ratio of 5% or more and less than 20%)
CC(C)N(C)c1nnc2c(C(=O)Nc3nnnn3C)ccc(C(F)(F)F)n12 [2-082]	5 (Herbicidal ratio of 90% or more (almost completely withered))	5 (Herbicidal ratio of 90% or more (almost completely withered))	–	–	–	–	–	–	–	5 (Herbicidal ratio of 90% or more (almost completely withered))	5 (Herbicidal ratio of 90% or more (almost completely withered))	4 (Herbicidal ratio of 70% or more and less than 90%)	2 (Herbicidal ratio of 20% or more and less than 40%)	5 (Herbicidal ratio of 90% or more (almost completely withered))	5 (Herbicidal ratio of 90% or more (almost completely withered))	4 (Herbicidal ratio of 70% or more and less than 90%)
